Patent US20240228487A1, “FUSED HETEROCYCLIC COMPOUND AND APPLICATION THEREOF, PHARMACEUTICAL COMPOSITIONS CONTAINING SAME AND APPLICATION THEREOF” (ZHEJIANG UNIVERSITY, priority 2021, published 2024)

Assays:
human TRPM2 channels = target: T1, human TRPM2 channels (Homo sapiens, UniProt O94759); assay: whole cell patch clamp, inhibition of TRPM2 channel current; assay type: cell-based; conditions: HEK293 cells stably expressing human TRPM2, 500 μM ADPR
T1 construct: expressed in transfected cells
T1 sequence (O94759 whole entry): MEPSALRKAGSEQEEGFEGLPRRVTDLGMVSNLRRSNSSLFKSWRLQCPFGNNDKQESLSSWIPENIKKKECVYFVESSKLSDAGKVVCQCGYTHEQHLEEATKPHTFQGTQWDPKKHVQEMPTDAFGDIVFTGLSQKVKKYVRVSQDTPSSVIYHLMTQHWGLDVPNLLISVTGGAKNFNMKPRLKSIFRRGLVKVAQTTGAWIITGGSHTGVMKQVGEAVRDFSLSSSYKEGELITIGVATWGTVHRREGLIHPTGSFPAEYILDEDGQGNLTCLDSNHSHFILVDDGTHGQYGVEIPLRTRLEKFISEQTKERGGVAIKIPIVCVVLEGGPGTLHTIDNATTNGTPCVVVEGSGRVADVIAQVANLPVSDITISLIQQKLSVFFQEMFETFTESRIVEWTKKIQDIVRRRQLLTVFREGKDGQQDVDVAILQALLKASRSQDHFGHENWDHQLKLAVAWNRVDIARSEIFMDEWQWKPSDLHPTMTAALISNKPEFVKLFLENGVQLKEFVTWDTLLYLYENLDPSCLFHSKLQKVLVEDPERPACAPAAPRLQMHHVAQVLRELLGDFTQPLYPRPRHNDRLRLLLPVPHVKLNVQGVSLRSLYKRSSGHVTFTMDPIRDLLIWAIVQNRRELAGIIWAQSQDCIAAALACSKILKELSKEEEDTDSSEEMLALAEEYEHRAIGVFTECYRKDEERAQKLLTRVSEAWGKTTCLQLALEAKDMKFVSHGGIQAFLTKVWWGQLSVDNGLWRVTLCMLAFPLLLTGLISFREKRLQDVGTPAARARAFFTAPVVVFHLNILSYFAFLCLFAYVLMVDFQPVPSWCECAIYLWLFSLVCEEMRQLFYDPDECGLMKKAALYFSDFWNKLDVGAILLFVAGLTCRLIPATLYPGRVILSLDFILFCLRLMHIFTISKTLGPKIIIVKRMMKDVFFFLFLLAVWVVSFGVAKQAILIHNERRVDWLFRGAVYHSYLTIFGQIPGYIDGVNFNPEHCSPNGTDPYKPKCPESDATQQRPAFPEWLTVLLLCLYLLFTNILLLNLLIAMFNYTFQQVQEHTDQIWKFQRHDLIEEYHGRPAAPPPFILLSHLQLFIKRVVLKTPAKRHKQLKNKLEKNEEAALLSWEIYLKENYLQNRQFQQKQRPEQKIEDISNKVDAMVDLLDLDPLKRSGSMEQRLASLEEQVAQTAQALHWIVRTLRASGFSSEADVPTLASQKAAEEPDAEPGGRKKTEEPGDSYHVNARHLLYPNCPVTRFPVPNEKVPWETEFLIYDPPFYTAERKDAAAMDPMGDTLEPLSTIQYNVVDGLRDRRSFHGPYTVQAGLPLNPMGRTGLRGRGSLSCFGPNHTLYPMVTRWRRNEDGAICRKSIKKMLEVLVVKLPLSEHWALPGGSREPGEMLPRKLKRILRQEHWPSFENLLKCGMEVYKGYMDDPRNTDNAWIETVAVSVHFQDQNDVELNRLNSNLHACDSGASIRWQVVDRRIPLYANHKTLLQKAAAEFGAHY
Experimental: The fused heterocyclic compound of the present invention has an inhibitory effect on the TRPM2 channel, and its pharmacological activity is measured using whole cell patch clamp technology, the corresponding steps are as follows: Incubating HEK293 cells stably expressing human TRPM2 channels in DMEM/F-12 medium containing 10% bovine serum, 50 units/mL of penicillin and […] of streptomycin under the condition of 5% CO2 and 37° C. The cells before testing are stored in the extracellular fluid (147 mM NaCl, 2 mM KCl, 1 mM MgCl2, 2 mM CaCl2, 10 mM HEPES, 13 mM glucose, pH 7.4). The electrode is filled with the electrode internal solution (147 mM NaCl, 0.05 mM EGTA, 1 mM MgCl2, 10 mM HEPES, 0.5 mM ADPR, pH=7.3), and the resistance is maintained at 3-5 M Ω. Administering ADPR into cells through electrodes, and detecting the ADPR concentration used to activate TRPM2 as 500 μM, when detecting a stable current, perfusing the corresponding concentration of fused heterocyclic compound II-1 into the extracellular fluid for at least 60 seconds. record the change in current magnitude using voltage ramp mode, changing the voltage from −100 mV to+100 mV within 500 ms, with a normal clamp voltage of 0 mV and a TRPM every 5 seconds; finally, replacing the extracellular fluid with a solution with pH=5.0 to block the TRPM2 current, the electrophysiological current test results obtained are shown in Table 1, and the electrophysiological current graph obtained is shown in FIG. 1. Similarly, administering corresponding concentrations of other fused heterocyclic compounds (II-2˜II-54, III-1˜III-11) into the extracellular fluid, taking electrophysiological tests using the same method, the results are shown in Table 1. The electrophysiological representative current graphs of some fused heterocyclic compounds (II-9, II-19, and II-36) inhibiting TRPM2 channel current are shown in FIG. 1.

[1] = system: C57BL/6 mice, transient middle cerebral artery occlusion (tMCAO); assay: mouse tMCAO ischemia/reperfusion injury model (Embodiment 68); assay type: in vivo; conditions: 3 mg/kg tail vein injection 3 h after reperfusion
Experimental: After isoflurane inhalation gas anesthesia of 22-25 g male C57BL/6 mice, the fiber-optic probes of the laser Doppler flowmeter were fixed to the animal's skull with glue for monitoring the cerebral blood flow of the middle cerebral artery (MCA) supplying cortex. […] Only animals whose blood flow values decreased to 20% of the basic value were selected according to the blood flow data monitored by the flowmeter. […]
The mice were decapitated 24 h after ischemia-reperfusion, the coronal planes of the brains were cut into brain slices of about 2 mm thickness uniformly, the brain slices were placed in 0.25% 2,3,5-triphenyltetrazolium chloride (TTC) solution, incubated at 37° C. […] The processed brain slices were photographed using a macro camera, and Image J image analysis software was used to calculate and count the cerebral infarct volume, and the measured results are shown in FIG. 4. […]

[2] = system: C57BL/6 mice, transient middle cerebral artery occlusion (tMCAO); assay: mouse tMCAO cerebral stroke model (Embodiment 69); assay type: in vivo; conditions: 3 mg/kg tail vein injection 3 h after reperfusion; for area of cerebral infarction caused by tMCAO: TTC staining 24 h after ischemia-reperfusion; for neuromotor dysfunction scores caused by tMCAO: scored 24 h after ischemia-reperfusion
Description: After isoflurane inhalation gas anesthesia of 22-25 g male C57BL/6 mice, the fiber-optic probes of a laser Doppler flowmeter were fixed to the skull of the mice with glue for monitoring the cerebral blood flow of the middle cerebral artery (MCA) supplying cortex. The mice were fixed in the supine position, and the middle of the neck was dehaired and routinely sterilized with 75% alcohol. An approximately 1.5 cm incision was made in the middle of the neck, and the skin of the neck was incised, and the muscle and fascia were separated along the inner edge of the sternocleidomastoideole; the right carotid artery sheath was bluntly separated to expose the right common carotid artery (CCA), external carotid artery (ECA), and internal carotid artery (ICA); after the surgical area was exposed satisfactorily, the CCA and ICA were temporarily clipped with arterial clips, and a small incision was made at the proximal end of the ECA with microsurgical scissors, and a nylon monofilament suture was inserted from the small incision along the ECA, and gently pushed into the intracranial area in the direction of the ICA for about 11.5±0.5 mm, blocking the beginning of the middle cerebral artery. Only the animals whose blood flow values decreased to 20% of the basic value were selected according to the blood flow data monitored by the flowmeter. After 90 minutes of ischemia, the monofilament sutures were gently withdrawn out, the arterial stumps were tied tightly, the surgical wounds were inspected, the bleeding was thoroughly stopped, a small amount of penicillin powder was sprinkled locally to prevent infection, and the subcutaneous tissues and the skin were sutured layer by layer, thus completing the ischemia reperfusion injury model. A heating plate was used to maintain the body temperature of the animals during surgery. After completion of the surgery, the sutured mice were placed in a heat preservation and humidification box until the mice recovered activities. Animals in the sham-operated group were subjected to the same surgical procedure but without middle artery occlusion.
Clean-grade male C57BL/6 mice were randomly divided into five groups, namely, the sham-operated group, the group of the positive control drug Edaravone(3 mg/kg), and the 3 mg/kg dose group of compounds II-1, II-23 and III-1.
The mice were subjected to tail vein injections of Edaravone, II-1, II-23, and III-1 respectively 3 h after modeling and reperfusion; the sham-operated group was injected with an equal volume of saline, and II-1, II-23, III-1, and Edaravone were dissolved in 0.9% saline solution. Neurological function scores and TTC staining of mice were performed 24 h after ischemia-reperfusion, and the results are shown in FIGS. 6, 7 and 8.
The mice were decapitated 24 h after ischemia-reperfusion, the coronal planes of the brains were cut into brain slices of about 2 mm thickness uniformly. The brain slices were placed in 0.25% 2,3,5-triphenyltetrazolium chloride (TTC) solution, incubated at 37° C. Celsius for 30 minutes away from light, stained, and fixed in 4% paraformaldehyde neutral buffer (pH 7.4) overnight. The processed brain slices were photographed using a macro camera, and Image J image analysis software was used to calculate and count the cerebral infarct volume, and the measured results are shown in FIG. 7. The formula for calculating the percentage of infarct volume was (sum of the left uninfarcted area −sum of the right uninfarcted area)/sum of the left uninfarcted area×100%.
According to the five-level, four-point standard of score, the mortality and neuromotor dysfunction scores of each group of mice were performed, and the results are shown in FIG. 8. […]

Row | Compound | IC50 (human TRPM2 channels) [µM] | volume of cerebral infarction caused by tMCAO ([1]; TTC staining 24 h after ischemia-reperfusion) | scores of neuromotor dysfunction caused by tMCAO ([1]; scored 24 h after ischemia-reperfusion) | area of cerebral infarction caused by tMCAO [2] | neuromotor dysfunction scores caused by tMCAO [2]
1 | CCOC(=O)c1cc(C(=O)c2ccccc2)n2cccc2c1 [II-1, 5-benzoimide 7-carboxylic acid ethyl ester] | 1 to 10 | significantly reduce | significantly reduce | significantly reduced | significantly reduced
2 | O=C(c1ccccc1)c1cc(C(=O)N2CCC2)cc2cccn12 [II-26, azetidine-1-yl (5-benzoimide 7-yl) ketone] | 1 to 10 | – | – | – | –
3 | CCCOC(c1ccccc1)c1cc(C(=O)OCC)cc2cccn12 (centres unmarked) [II-54, 5-(Phenyl (Propyloxy) Methylindolizine-7-ethyl carboxylate] | 10 to 20 | – | – | – | –
4 | CCOC(=O)c1cc(C(=O)c2cccc(Br)c2)n2cccc2c1 [II-10, 5-(3-bromobenzoyl) indolizine-7-Ethyl carboxylate] | 1 to 10 | – | – | – | –
5 | COC(=O)c1cc(C(=O)c2ccccc2)n2ccnc2c1 [III-1, 5-benzimidazolo[1,2-a]pyridine-7-methyl carboxylate] | 1 to 10 | – | – | significantly reduced | significantly reduced
6 | 5-((octanyloxy) (phenyl) methyl) indolizine-7-ethyl carboxylate [II-49] | 20 to 50 | – | – | – | –
7 | O=C(c1ccccc1)c1cc(C(=O)N2CCNCC2)cc2cccn12 [II-29, (5-benzoyl indolizine-7-yl) (piperazin-1-yl) ketone] | 20 to 50 | – | – | – | –
8 | CCCC(=O)OC(c1ccccc1)c1cc(C(=O)N(CC)CC)cc2cccn12 (centres unmarked) [II-51] | 20 to 50 | – | – | – | –
